Where a SMILES comes first, the peptide text is derived from it. [ ]: non-standard residue; d: D form. Sar = CNCC(=O)O
Key:
[1] = tested on: antibody-initiated complement activation (ABO incompatible hemolysis); settings: for inhibition of ABO incompatible hemolysis, in words: peptides at 1.8 mM, compared with PA-dPEG24, FIG. 1A; for complement inhibition overall, in words: both hemolytic complement inhibition assays
Experimental: (§1) For hemolytic complement assays, human red blood cells (RBCs) from type AB donors were purified, washed and standardized to 1×10^9 cells/ml, as previously described. Human sera from type 0 donors at a 20% final concentration was combined with […] PIC1 or sarcosine variant peptides, and the volume was brought up to 0.15 ml with GVBS^++ and […] RBCs. For factor B-depleted sera hemolytic assays, a final of 0.005% factor B depleted sera was incubated with […] PIC1 or sarcosine variant peptides with 0.1 ml antibody-sensitized sheep red blood cells (EA) in a final volume of 0.75 ml GVBS^++. The samples were incubated for one hour at 37° C. Then, 1.0 ml of GVBS^−− was added to the factor B-depleted samples to stop the reaction. The samples were spun at 3,000 rpm for 5 minutes. The supernatant was then collected and read at 412 nm. An analysis was performed to represent the values as a percent of the positive control, which consists of human 0 sera and AB red blood cells in GVBS^++ buffer.
(§2) An evaluation of the extent to which the peptide variants inhibit antibody-initiated complement activation was performed. The peptide variants were tested in the following two hemolytic assays: (i) an ABO incompatibility ex vivo assay and (ii) a classical pathway CH50-type assay in factor B-depleted sera.
In the ABO incompatibility hemolytic assay, purified erythrocytes from a ‘type AB+’ donor were incubated with sera from a ‘type 0’ subject containing anti-A and anti-B antibodies; peptides were tested at 1.8 mM.

[2] = target: T1, MPO heme ring (Homo sapiens, UniProt P05164); assay: MPO heme ring oxidative degradation (absorbance 300-550 nm); format: biochemical; settings: peptides at 3 mM, with H2O2, FIG. 3A-3H
T1 construct: purchased Lee BioSolutions (Maryland Heights, Mo.)
T1 sequence (P05164 279-745 limits assumed): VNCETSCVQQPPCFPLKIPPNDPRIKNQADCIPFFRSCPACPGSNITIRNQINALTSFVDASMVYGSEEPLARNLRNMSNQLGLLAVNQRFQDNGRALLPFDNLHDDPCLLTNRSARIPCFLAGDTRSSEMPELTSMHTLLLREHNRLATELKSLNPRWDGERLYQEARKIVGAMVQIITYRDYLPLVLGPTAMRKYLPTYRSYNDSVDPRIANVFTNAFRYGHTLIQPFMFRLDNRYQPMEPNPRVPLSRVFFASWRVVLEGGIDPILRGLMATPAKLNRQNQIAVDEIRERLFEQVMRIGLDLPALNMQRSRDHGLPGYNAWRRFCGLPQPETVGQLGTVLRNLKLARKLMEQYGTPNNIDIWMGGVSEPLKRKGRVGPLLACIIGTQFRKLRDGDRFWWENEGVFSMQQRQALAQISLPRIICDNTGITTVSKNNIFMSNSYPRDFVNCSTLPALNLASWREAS
T1 sequence (P05164 165-273 limits assumed): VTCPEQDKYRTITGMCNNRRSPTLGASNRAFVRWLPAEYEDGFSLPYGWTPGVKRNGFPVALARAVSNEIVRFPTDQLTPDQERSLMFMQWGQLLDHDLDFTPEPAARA
Experimental: In a 96 well plate, 0.025 ml of 1.7 mg/ml MPO was combined with 0.00125 ml of 0.5% H2O2 and 3 mM PIC1 or sarcosine variant peptides in a total volume of 0.125 ml PBS and left to incubate at room temperature for 2 minutes. Using a 96 well plate reader, the wells were scanned for absorbance from 300-550 nm to generate curves reflecting the iron state in the MPO heme ring, as previously reported.
The ability of the variants to prevent degradation of the heme ring in the MPO molecule was then evaluated. […] Degradation of the heme ring can be evaluated via spectrometric measurements of absorption of wavelengths from 300 to 550 nm.

[3] = Total Antioxidant Capacity (TAC) assay; settings: for total antioxidant capacity, in words: 0.03-0.25 mM, copper reducing equivalents, FIG. 4
Experimental: The TAC (Total Antioxidant Capacity) Assay (Cell Biolabs, Inc. San Diego, Calif.) was used to measure the antioxidant capacity of the sarcosine variants based on the reduction of copper (II) to copper (I). The assay was performed according to the recommended kit protocol.
Antioxidant activity was measured in copper reducing equivalents (CRE). Peptides were tested over a range of concentrations from 0.03-0.25 mM then compared to the standard.

[4] = tested on: purified human neutrophils; assay: NETosis assay (immune complex activated serum and H2O2; PicoGreen free DNA, fluorescence microscopy); format: cell-based; settings: peptides at 2 mM, FIG. 5A
Experimental: NETosis assays with immune complexes were performed as previously described. Briefly, normal human serum was stimulated with ovalbumin-antiovalbumin immune complexes in GVBS^++ for 30 minutes at 37° C. This mixture along with 0.05% H2O2 was then added to purified human neutrophils resuspended in RPMI with or without sarcosine variants (2 mM), allowing NETosis to occur. Quantitation of free DNA released from the neutrophils was performed using PicoGreen. Slides were stained with DAPI (Southern Biotech, Birmingham, Ala.). The following antibodies were used to visualize formation of NETs: • (i) mouse anti-elastase (Invitrogen, Carlsbad, Calif.) as a primary antibody with the secondary goat anti-mouse antibody Alexa Fluor 568 (Novus Biologicals, Centennial, Colo.) and • (ii) rabbit anti-histone H3 (Abcam, Cambridge Mass.) with goat anti-rabbit antibody Alexa Fluor 488 (Novus Biologicals). Fluorescence microscopy using an Olympus BX53 microscope was performed to visualize NETs.
The peptide variants were tested for inhibition of NETosis. In this assay, purified human neutrophils were stimulated with normal human serum activated with ovalbumin-antiovalbumin immune complexes and hydrogen peroxide. Free DNA expressed from the neutrophils was then measured in a PicoGreen assay. […] Direct visualization of neutrophil extracellular trap (NET) formation by fluorescence microscopy was used to confirm the above NETosis results with the 18 variant. Human neutrophils were purified and stimulated on glass slides then stained with DAPI to visualize DNA and probed with anti-neutrophil elastase (αNE) and anti-histone H3 (αhistone), as previously described. […] Fluorescence microscopy visualization of NETs confirmed the findings seen for quantitative measurements of free DNA.

[5] = target: T2, C1q (Homo sapiens, UniProt P02745+P02746+P02747); assay: ELISA-type assay of peptide binding to C1q; settings: binding curves and half-maximal binding, FIG. 1C, 1D
T2 construct: purchased Complement Technology (Tyler, Tex.)
T2 sequence (P02745 23-245): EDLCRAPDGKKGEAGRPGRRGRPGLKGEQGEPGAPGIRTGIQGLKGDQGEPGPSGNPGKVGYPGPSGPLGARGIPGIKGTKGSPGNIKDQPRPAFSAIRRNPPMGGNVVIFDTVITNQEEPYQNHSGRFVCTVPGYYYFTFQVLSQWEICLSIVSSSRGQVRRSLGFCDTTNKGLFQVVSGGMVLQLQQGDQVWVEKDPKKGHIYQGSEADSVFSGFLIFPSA
T2 sequence (P02746 28-253): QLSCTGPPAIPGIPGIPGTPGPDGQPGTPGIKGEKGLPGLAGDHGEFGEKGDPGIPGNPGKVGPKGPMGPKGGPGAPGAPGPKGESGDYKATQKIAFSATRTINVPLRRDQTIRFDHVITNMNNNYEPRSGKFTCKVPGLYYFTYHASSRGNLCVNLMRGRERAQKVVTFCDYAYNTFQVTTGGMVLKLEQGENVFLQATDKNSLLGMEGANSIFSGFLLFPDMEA
T2 sequence (P02747 29-245): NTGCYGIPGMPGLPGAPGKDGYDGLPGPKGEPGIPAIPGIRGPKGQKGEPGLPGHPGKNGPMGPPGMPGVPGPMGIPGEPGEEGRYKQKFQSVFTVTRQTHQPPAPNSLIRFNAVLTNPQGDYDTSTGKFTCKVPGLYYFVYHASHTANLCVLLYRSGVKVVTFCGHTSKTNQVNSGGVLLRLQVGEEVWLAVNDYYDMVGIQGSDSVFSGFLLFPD
Experimental: (§3) The plates were washed with PBST (phosphate buffered saline+0.1% Tween) and then blocked with 1% gelatin/PBS for 2 hours at room temperature. After washing, the plates were incubated with PA or sarcosine variant peptides starting at 2.5 mg/ml and then serially diluted in 1% gelatin/PBS for 1 hour at room temperature. After washing, the plates were probed with rabbit anti-PA (developed with Cocalico Biologicals, Reamstown, Pa.) at 1:1000 in 1% gelatin/PBS for 1 hour, room temperature, followed by a goat anti-rabbit HRP (Sigma Aldrich, St Louis, Mo.) at 1:1,000 in 1% gelatin/PBS for 1 hour at room temperature with a washing step in between. Wells were developed using TMB substrate solution, stopped using 1 N H2SO4, and read at 450 nm in a plate reader.
Higher concentrations of DMSO interfere with the detecting reagents resulting in a partial binding curve.

[6] = target: T3, MPO (Homo sapiens, UniProt P05164); assay: plate-based assay of binding to solid phased MPO; settings: binding curves and half-maximal binding, FIG. 2C, 2D
T3 construct: purchased Lee BioSolutions (Maryland Heights, Mo.)
T3 sequence (P05164 279-745 limits assumed): as the sequence (P05164 279-745 limits assumed) above
T3 sequence (P05164 165-273 limits assumed): as the sequence (P05164 165-273 limits assumed) above
Experimental: as §3
A plate-based assay was performed to test the binding of the peptide variants to solid phased MPO. MPO binding was identified for all variants, except for C9,10.

[7] = tested on: classical complement pathway
Experimental: as §1, §2
A CH50-type hemolytic assay was then performed. with antibody-sensitized sheep erythrocytes, isolating the classical pathway by utilizing factor B-depleted sera; peptides were tested at 0.4 mM.

[8] = target: T4, myeloperoxidase (MPO) (Homo sapiens, UniProt P05164); assay: MPO peroxidase activity, TMB-based assay; format: biochemical
T4 construct: purchased Lee BioSolutions (Maryland Heights, Mo.)
T4 sequence (P05164 279-745 limits assumed): as the sequence (P05164 279-745 limits assumed) above
T4 sequence (P05164 165-273 limits assumed): as the sequence (P05164 165-273 limits assumed) above
Experimental: PIC1 and sarcosine variants were diluted to 25 mg/ml and then serially titrated in a 96 well plate at a volume of 0.02 ml. Myeloperoxidase (MPO) was diluted to 20 μg/ml and 0.02 ml was added to the titrated peptides. TMB (3,3′,5,5′-tetramethylbenzidine) (0.1 ml) was added to each well for 2 minutes, followed by 0.1 ml of 2.5 N H2SO4 for another 2 minutes, and then read on a 96 well plate reader (BioTek) at 450 nm.
In this assay, the variants were tested for MPO inhibition over a range of concentrations. Strong MPO inhibition was found for all variants with the exception of the no-cysteine variant (C9,10).

[9] = summary grade of Table 4, key not given

Compound	inhibition of ABO incompatible hemolysis, in words [1]	complement inhibition overall, in words [1]	inhibition of heme ring degradation, in words [2]	total antioxidant capacity, in words [3]	inhibition of NETosis (free DNA, PicoGreen), in words [4]	also measured
CC[C@H](C)[C@H](N)C(=O)N(C)CC(=O)N[C@@H](CC(C)C)C(=O)N[C@H](C(=O)N[C@@H](CC(C)C)C(=O)N[C@@H](CCC(=O)O)C(=O)N1CCC[C@H]1C(=O)N[C@H](C(=O)N[C@@H](CS)C(=O)N[C@@H](CS)C(=O)N[C@@H](CCC(N)=O)C(=O)N[C@@H](CCC(=O)O)C(=O)N[C@@H](CCCNC(=N)N)C(=O)N[C@@H](C)C(=O)N[C@@H](C)C(=O)O)[C@@H](C)CC)[C@@H](C)CC [A2] (H-I[Sar]LILEPICCQERAA-OH)	inhibited ABO incompatible hemolysis to a greater extent than did the PA-dPEG24	–	–	–	–	–
CC[C@H](C)[C@H](N)C(=O)N[C@@H](C)C(=O)N[C@@H](CC(C)C)C(=O)N[C@H](C(=O)N[C@@H](CC(C)C)C(=O)N[C@@H](CCC(=O)O)C(=O)N1CCC[C@H]1C(=O)N[C@H](C(=O)N(C)CC(=O)N[C@@H](CS)C(=O)N[C@@H](CCC(N)=O)C(=O)N[C@@H](CCC(=O)O)C(=O)N[C@@H](CCCNC(=N)N)C(=O)N[C@@H](C)C(=O)N[C@@H](C)C(=O)O)[C@@H](C)CC)[C@@H](C)CC [C9] (H-IALILEPI[Sar]CQERAA-OH)	inhibited ABO incompatible hemolysis to a greater extent than did the PA-dPEG24	performed almost identically to the parent compound, PA-dPEG24	near perfect preservation of the heme ring absorption spectrum	approximately half of the antioxidant capacity as PA-dPEG24	–	–
CC[C@H](C)[C@H](N)C(=O)N[C@@H](C)C(=O)N[C@@H](CC(C)C)C(=O)N(C)CC(=O)N[C@@H](CC(C)C)C(=O)N[C@@H](CCC(=O)O)C(=O)N1CCC[C@H]1C(=O)N[C@H](C(=O)N[C@@H](CS)C(=O)N[C@@H](CS)C(=O)N[C@@H](CCC(N)=O)C(=O)N[C@@H](CCC(=O)O)C(=O)N[C@@H](CCCNC(=N)N)C(=O)N[C@@H](C)C(=O)N[C@@H](C)C(=O)O)[C@@H](C)CC [I4] (H-IAL[Sar]LEPICCQERAA-OH)	inhibited ABO incompatible hemolysis to a greater extent than did the PA-dPEG24	–	–	antioxidant capacity approaching that of PA-dPEG24	reduced ability to inhibit NETosis compared with PA-dPEG24	–
CC[C@H](C)[C@H](N)C(=O)N[C@@H](C)C(=O)N(C)CC(=O)N[C@H](C(=O)N[C@@H](CC(C)C)C(=O)N[C@@H](CCC(=O)O)C(=O)N1CCC[C@H]1C(=O)N[C@H](C(=O)N[C@@H](CS)C(=O)N[C@@H](CS)C(=O)N[C@@H](CCC(N)=O)C(=O)N[C@@H](CCC(=O)O)C(=O)N[C@@H](CCCNC(=N)N)C(=O)N[C@@H](C)C(=O)N[C@@H](C)C(=O)O)[C@@H](C)CC)[C@@H](C)CC [L3] (H-IA[Sar]ILEPICCQERAA-OH)	–	–	–	antioxidant capacity approaching that of PA-dPEG24	–	–
CC[C@H](C)[C@H](N)C(=O)N[C@@H](C)C(=O)N[C@@H](CC(C)C)C(=O)N[C@H](C(=O)N[C@@H](CC(C)C)C(=O)N[C@@H](CCC(=O)O)C(=O)N1CCC[C@H]1C(=O)N[C@H](C(=O)N[C@@H](CS)C(=O)N[C@@H](CS)C(=O)N[C@@H](CCC(N)=O)C(=O)N[C@@H](CCC(=O)O)C(=O)N[C@@H](CCCNC(=N)N)C(=O)N[C@@H](C)C(=O)N[C@@H](C)C(=O)O)[C@@H](C)CC)[C@@H](C)CC [PA]	–	–	–	–	–	binding to C1q, in words [5]: superior binding to C1q as compared with the other peptides; binding to MPO, in words [6]: near complete overlay of the 18 and PA curves
CC[C@H](C)[C@H](N)C(=O)N[C@@H](C)C(=O)N[C@@H](CC(C)C)C(=O)N[C@H](C(=O)N[C@@H](CC(C)C)C(=O)N[C@@H](CCC(=O)O)C(=O)N1CCC[C@H]1C(=O)N[C@H](C(=O)N(C)CC(=O)N[C@@H](CCC(N)=O)C(=O)N[C@@H](CCC(=O)O)C(=O)N[C@@H](CCCNC(=N)N)C(=O)N[C@@H](C)C(=O)N[C@@H](C)C(=O)O)[C@@H](C)CC)[C@@H](C)CC [C9, 10] (H-IALILEPI[Sar]QERAA-OH)	minimal inhibition of ABO hemolysis	most, but not all, complement inhibition was lost	showed inhibition of heme ring degradation	no antioxidant capacity	only slight inhibition relative to the negative control	ABO C’ inhibition [1, 9]: 0; inhibition of classical pathway hemolysis, in words ([7]; peptides at 0.4 mM, compared with PA-dPEG24, FIG. 1B): minimal activity; Classical C’ inhibition [7, 9]: 0; MPO inhibition, in words ([8]; dose-response and half-maximal inhibition, FIG. 2A, 2B): does not possess; MPO inhibition [8, 9]: 0; Total Antioxidant Cap [3, 9]: 0

Source: US20220096592A1, “PIC1 VARIANTS WITH IMPROVED SOLUBILITY AND METHODS OF USING THE SAME” (priority 2019, published 2022)
